Common to all, as to type: cell-based
Assay [1] addresses T1, hM1 (human Muscarinic receptor subtype 1) (Homo sapiens, UniProt P11229).
T1 construct: expressed in transfected cells; host or cells: CHO cells (Chinese hamster ovary cells, ATCC)
T1 sequence (P11229 1-460): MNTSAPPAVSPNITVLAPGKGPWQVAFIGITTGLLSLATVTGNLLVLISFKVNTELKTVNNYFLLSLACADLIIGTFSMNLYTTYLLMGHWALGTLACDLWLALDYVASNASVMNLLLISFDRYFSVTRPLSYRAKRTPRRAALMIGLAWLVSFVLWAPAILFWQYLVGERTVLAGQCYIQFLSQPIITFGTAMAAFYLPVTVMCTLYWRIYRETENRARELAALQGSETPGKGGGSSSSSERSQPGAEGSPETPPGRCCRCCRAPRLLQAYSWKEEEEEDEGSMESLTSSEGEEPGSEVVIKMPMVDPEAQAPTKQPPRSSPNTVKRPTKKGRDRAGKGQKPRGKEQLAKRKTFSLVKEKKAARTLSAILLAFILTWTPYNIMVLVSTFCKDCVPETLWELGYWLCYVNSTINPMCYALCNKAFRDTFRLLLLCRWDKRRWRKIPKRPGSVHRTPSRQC
The experiment in a line: Human M1 calcium mobilization FLIPR assay. The conditions noted are these: CHO cells expressing hM1, Ca2+ release. As for the experimental part: (§1) Biological Evaluation Human M1, Rat M1, Human M3 and Human M5 Calcium Mobilization FLIPR™ Assay
(§2) The compound activity in the present invention (EC50 or IC50) was measured using a 384 plate-based imaging assay that monitors drug induced intracellular Ca^2+ release in whole cells. Activation of hM1 (human Muscarinic receptor subtype 1, gene bank access NM_000738), rM1 (rat Muscarinic receptor subtype 1, gene bank access NM_080773), hM3 (human Muscarinic receptor subtype 3, gene bank access NM_000740NM_000740) and hM5 (human Muscarinic receptor subtype 5, gene bank access NM_0121258), receptors expressed in CHO cells (Chinese hamster ovary cells, ATCC) was quantified in a Molecular Devices FLIPR II™ instrument as an increase in fluorescent signal. Inhibition of hM3 and hM5 by compounds was determined by the decrease in fluorescent signal in response to 20 nM carbachol activation.
(§3) CHO cells were plated in 384-black polylysine coated plate (Costar) at 8000 cells/well/50 μl for 24 hours or 4000 cells/well for 48 hours in a humidified incubator (5% CO2 and 37° C.) in DMEM/F12 medium without selection agent. Prior to the experiment the cell culture medium was removed from the plates by inversion. A loading solution of 30 μl of Hank's balanced salt solution, 10 mM Hepes and 2.5 mM Probenicid at Ph 7.4 (Cat no. 311-520-VL, Wisent) with 2 μM calcium indicator dye (FLUO-3AM, Molecular Probes F14202) was added to each well. Plates were incubated at 37° C. for 60 minutes prior to start the experiment. The incubation was terminated by washing the cells four times in assay buffer, leaving a residual 25 μl buffer per well. Cell plates were then transferred to the FLIPR, ready for compound additions.
(§4) The day of experiment, carbachol and compounds were diluted in three-fold concentration range (10 points serial dilution) for addition by FLIPR instrument. For all calcium assays, a baseline reading was taken for 30 seconds followed by the addition of 12.5 μl (25 μl for hM1 and rM1) of compounds, resulting in a total well volume of 37.5 μl (50 μl for hM1 and rM1). Data were collected every 1.6 seconds for 300 seconds. For hM3 and hM5 an additional 12.5 μl of carbachol (20 nM final) was added at 300 seconds. After this addition of carbachol (producing a final volume of 50 μl), the FLIPR continued to collect data every 2 seconds for 240 seconds. The fluorescence emission was read using filter 1 (emission 520-545 nm) by the FLIPR on board CCD camera.
(§5) Calcium mobilization output data were calculated as the maximal relative fluorescence unit (RFU) minus the minal value for both compound and agonist reading frame (except for hM1 and rM1 using only the maximal RFU). Data were analyzed using sigmoidal fits of a non-linear curve-fitting program (XLfit version 5.0.6 from ID Business Solutions Limited, Guildford, UK). All EC50 and IC50 values are reported as arithmetic means±standard error of mean of ‘n’ independent experiments.
(In general: A change in cytosolic calcium serves as a functional read-out for many receptors and channels.)

Assay [2] concerns the target T2, hM5 (human Muscarinic receptor subtype 5) (Homo sapiens, UniProt P08912).
T2 construct: expressed in transfected cells; host or cells: CHO cells (Chinese hamster ovary cells, ATCC)
T2 sequence (P08912 1-532): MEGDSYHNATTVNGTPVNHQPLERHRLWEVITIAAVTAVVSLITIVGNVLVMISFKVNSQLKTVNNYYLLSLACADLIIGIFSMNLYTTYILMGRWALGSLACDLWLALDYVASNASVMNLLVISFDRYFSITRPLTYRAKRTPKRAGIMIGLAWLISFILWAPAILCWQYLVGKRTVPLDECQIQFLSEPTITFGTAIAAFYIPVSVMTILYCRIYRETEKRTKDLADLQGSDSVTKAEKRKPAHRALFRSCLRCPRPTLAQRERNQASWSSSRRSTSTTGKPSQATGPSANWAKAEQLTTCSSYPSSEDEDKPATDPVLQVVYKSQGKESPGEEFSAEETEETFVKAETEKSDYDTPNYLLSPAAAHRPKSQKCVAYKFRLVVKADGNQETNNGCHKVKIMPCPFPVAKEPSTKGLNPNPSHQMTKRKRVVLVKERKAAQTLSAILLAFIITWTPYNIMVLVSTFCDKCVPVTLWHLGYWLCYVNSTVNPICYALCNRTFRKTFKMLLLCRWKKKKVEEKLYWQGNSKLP
Nature of the assay: Human M5 calcium mobilization FLIPR assay. Conditions: CHO cells expressing hM5, Ca2+ release. As for the experimental part:
as §1, §2, §3, §4, §5

Assay [3] concerns the target T3, hM3 (human Muscarinic receptor subtype 3) (Homo sapiens, UniProt P20309).
T3 construct: expressed in transfected cells; host or cells: CHO cells (Chinese hamster ovary cells, ATCC)
The experiment in a line: Human M3 calcium mobilization FLIPR assay. Conditions: CHO cells expressing hM3, Ca2+ release. Here is the method: as §1, §2, §3, §4, §5

Broadly, the EC50 is the concentration needed to bring the measured effect to its halfway point.

T3 sequence (P20309 whole entry): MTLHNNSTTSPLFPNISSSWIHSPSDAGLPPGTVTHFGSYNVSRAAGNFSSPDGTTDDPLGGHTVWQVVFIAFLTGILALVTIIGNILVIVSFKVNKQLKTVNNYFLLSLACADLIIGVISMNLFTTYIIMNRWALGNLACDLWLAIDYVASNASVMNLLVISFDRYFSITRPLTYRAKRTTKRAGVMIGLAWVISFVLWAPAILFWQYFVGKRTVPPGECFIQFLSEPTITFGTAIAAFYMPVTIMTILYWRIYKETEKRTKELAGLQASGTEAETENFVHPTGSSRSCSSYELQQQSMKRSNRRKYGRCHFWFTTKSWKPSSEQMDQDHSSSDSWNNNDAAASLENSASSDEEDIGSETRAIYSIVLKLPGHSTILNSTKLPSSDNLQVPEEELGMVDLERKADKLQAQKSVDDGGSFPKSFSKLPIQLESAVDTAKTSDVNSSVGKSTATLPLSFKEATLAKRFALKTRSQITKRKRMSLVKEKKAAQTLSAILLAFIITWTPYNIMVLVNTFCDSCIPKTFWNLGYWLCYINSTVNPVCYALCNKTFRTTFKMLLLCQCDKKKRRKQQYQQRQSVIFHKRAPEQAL

For the compound `O=C(C1CCCC1)N1CCC(N2CCC(N3C(=O)N[C@@H]4CCCC[C@@H]43)CC2)CC1`, the EC50 in assay [1] was 300 nM. Consider `O=C(c1ccccc1)N1CCC(N2CCC(N3C(=O)N[C@@H]4CCCC[C@H]43)CC2)CC1`, for which the concentration for a half-maximal effect (EC50) in assay [1] stood at 600 nM. On to `CCOC(=O)N1CCC(N2CCC(N3C(=O)N(C(C)C)[C@H]4CCCC[C@@H]43)CC2)CC1`, for which the EC50 is greater than 40000 nM in assay [2], 1200 nM in assay [1] and greater than 40000 nM in assay [3].

For `Cc1ccccc1C(=O)N1CCC(N2CCC(N3C(=O)C[C@H]4CCCC[C@@H]43)CC2)CC1`, the EC50 in assay [2] is greater than 40000 nM; in assay [1], 93 nM; in assay [3], greater than 40000 nM. As to `O=C(C1CC1(F)F)N1CCC(N2CCC(N3C(=O)N[C@H]4CCCC[C@@H]43)CC2)CC1` (some centres unmarked), the EC50 in assay [1] turned out to be 81 nM. Same read-out and setting: to `CCNC(=O)N1CCC(N2CCC(N3C(=O)N[C@@H]4CCCC[C@H]43)CC2)C1` (mixture of isomers) belongs 1000 nM; to `CCOC(=O)N1CCC(N2CCC(N3C(=O)C[C@H]4CCCC[C@@H]43)CC2)C1` (single isomer, unassigned), 59 nM.

The values above are taken from patent US7956069B2, “Compounds” (AstraZeneca AB, priority 2006, dated 2011).
